Reference: ChEMBL document CHEMBL3352589, “The use of spirocyclic scaffolds in drug discovery” (Bioorg Med Chem Lett, 2014)

Molecular target: 5-hydroxytryptamine receptor 6 (Homo sapiens, UniProt P50406)
Assay: Antagonist activity at 5-HT6 receptor (unknown origin)

Chain of 5-hydroxytryptamine receptor 6 (P50406 whole entry): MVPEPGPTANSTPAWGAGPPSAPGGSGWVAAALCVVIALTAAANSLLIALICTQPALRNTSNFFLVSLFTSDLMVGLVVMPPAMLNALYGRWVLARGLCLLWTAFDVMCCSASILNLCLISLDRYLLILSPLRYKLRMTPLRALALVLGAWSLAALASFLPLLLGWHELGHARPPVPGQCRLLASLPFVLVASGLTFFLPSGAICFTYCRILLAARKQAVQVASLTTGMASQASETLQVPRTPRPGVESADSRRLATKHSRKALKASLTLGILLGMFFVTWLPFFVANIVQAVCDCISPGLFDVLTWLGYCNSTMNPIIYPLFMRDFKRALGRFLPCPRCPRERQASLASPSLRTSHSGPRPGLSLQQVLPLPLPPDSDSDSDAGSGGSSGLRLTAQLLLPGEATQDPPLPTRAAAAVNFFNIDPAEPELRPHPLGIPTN

A Ki of 26 nM was found for `CN1CCc2ccc(N3C(=O)CSC34C(=O)Nc3ccccc34)cc2CC1` (racemic) in this work.
A Ki of 15 nM was found for `CN1CCc2ccc(N3C(=O)CSC34C(=O)Nc3ccccc34)cc2CC1` (single isomer, unassigned) in this work.
